This note sets out measurements from patent US20110184178A1, “POLYMORPHS OF 5-(3-(ETHYLSULFONYL)PHENYL)-3,8-DIMETHYL-N-(1-METHYLPIPERIDIN-4-YL)-9H-PYRIDO[2,3-B]INDOLE-7-CARBOXAMIDE AND METHODS OF USE THEREFOR” (Takeda Pharmaceutical Company Limited, priority 2008, published 2011).

What all share (format): physicochemical
A short description of data set [1]: Physical characterization of the polymorphs and salt (XRPD, DSC, TGA, 1H-NMR, KF, moisture sorption): stability assessment. Conditions: solid form. As for the experimental part:
Described herein are Form A, Form B, Form C, Form D, Form E, Form F and Form G of Compound I. Various tests were performed in order to physically characterize the polymorphs of Compound I, including X-ray powder diffraction (XRPD), differential scanning calorimetry (DSC), thermogravimetric analysis (TGA), solution proton nuclear magnetic resonance (^1H-NMR), and moisture sorption and desorption analysis (M S/Des). Detailed experimental conditions for each of the analytical techniques are described in the Examples section. […] A summary of these experiments and the results are presented below and in Table 12.

The nature of data set [2]: Moisture-sorption analysis (gravimetric adsorption/desorption, 25° C.). The protocol:
Further, the material gained enough water to form the dihydrate in approximately 45 minutes at 30% RH during adsorption and lost enough water to form the anhydrate at 15% RH during desorption in less than 60 minutes. […] The sample was further allowed to equilibrate at ambient laboratory conditions overnight and reanalyzed by XRPD. […] The moisture sorption experiment of Form C of Compound I provides a curve similar to the Form A curve (FIG. 11). […] Further, the material gained enough water to form the dihydrate in less than 60 minutes at 30% RH during adsorption and lost enough water to form the anhydrate at 15% RH during desorption in approximately 80 minutes. […] Moisture-sorption experiments were carried out on all samples by first drying the sample at 0% RH and 25° C. until an equilibrium weight was reached or for a maximum of four hours. The sample was then subjected to an isothermal (25° C.) adsorption scan from 10 to 90% RH in steps of 10%. Samples were then allowed to equilibrate to an asymptotic weight at each point for a maximum of four hours. Following adsorption, a desorption scan from 85 to 0% RH (at 25° C.) was run in steps of −10% again allowing a maximum of four hours for equilibration to an asymptotic weight. Samples were dried for one hour at 80° C. and the resulting solids analyzed by XRPD.

The nature of data set [3]: Solubility study of Form A in de-ionized water and 20 mM phosphate buffer at pH 3.2 (HPLC, XRPD of solids). Conditions: for solubility at 1 week: ambient temperature, read-out: Solubility mg/mL (1 week); for solubility at 1 day: read-out: Solubility mg/mL (1 day). The protocol:
Solubility was determined for Form A of Compound I by suspending the material in de-ionized water and 20 mM phosphate buffer at pH 3.2 and ambient temperature. Approximately 40 mg of Form A of Compound I was charged to 2-dram amber vials equipped with magnetic stir bars, followed by the addition of DI water or phosphate buffer (2.0 mL) in one portion. The samples were allowed to equilibrate with stirring for 16 h, followed by centrifugation. An aliquot of the supernatant liquid was analyzed by HPLC, and the solids isolated by filtration and dried under vacuum at ambient temperature for analysis by XRPD. Samples were allowed to stir for an additional 6 days and concentration determined by HPLC.

Data set [4] can be described thus: Humidity chamber study of Form A (XRPD, Karl Fischer). Conditions: ambient temperature and 0% RH for one week. From the text: A sample of Form A was exposed to ambient temperature and 0% RH for one week.
A short description of data set [5]: DSC heat-cool experiments with isothermal holds to isolate high-melt forms. As for the experimental part:
Differential scanning calorimetry (DSC) analyses were carried out on samples weighed in an aluminum pan, covered with a pierced lid, and then crimped. Analysis conditions were 30° C. to 300-350° C. ramped at 10° C./min. Samples were subjected to heat-cool-heat experiments to determine if a unique form or interconversion could be observed. Compound I was prepared by thoroughly mixing Form A lots with stirring by spatula and tumbling the powders for several minutes in a scintillation vial. Experiments were setup as described in Tables 17 and 18 with isothermal holds for five minutes at temperatures slightly below/above the observed transitions to encourage conversion/ripening. Similarly, controlled cooling profiles (−5° C./min) were used to help promote crystal growth as opposed to quench cooling which may result in amorphous or kinetically favored forms instead of the stable form.

Data set [6] is described as follows: Slurry experiments (form by XRPD after slurrying in a solvent). Conditions: Form A in dioxane slurry. The protocol:
50 to 60 mg of Form A of Compound I was weighed out into 2 dram amber vials and the material was slurried in 2 mL of a solvent. The slurry experiments were carried out at either ambient temperature or at 40° C. Samples were obtained from slurries after one day, one week, and two weeks. Tables 15 and 16 detail the results of the slurry experiments.

Where [7] appears, read: solids isolated from DI water suspension.
Where [8] appears, read: solids isolated from phosphate buffer suspension, pH 3.2.
[9] abbreviates: 30-280° C. @ 10° C./min, hold 280° C. for 5 min, 280-30° C. @ -5° C./min.
Where [10] appears, read: 30-290° C. @ 10° C./min, hold 290° C. for 5 min, 290-30° C. @ -5° C./min.

Read-outs that look alike come from different tables or passages of the source.

With `CCS(=O)(=O)c1cccc(-c2cc(C(=O)NC3CCN(C)CC3)c(C)c3[nH]c4ncc(C)cc4c23)c1` [Compound I Form A, 5-(3-(ethylsulfonyl)phenyl)-3,8-dimethyl-N-(1-methylpiperidin-4-yl)-9H-pyrido[2,3-b]indole-7-carboxamide], the “stability (based on the available characterization data)” value in data set [1] was “stable at ambient conditions”. In addition, the “XRPD analysis of the solid following the desorption scan” value in data set [2] is “consistent with Form C”. In addition, the “time to lose enough water to form the anhydrate” value in data set [2] (at 15% RH during desorption) is “less than 60 minutes”. Also, the “time to gain enough water to form the dihydrate” value in data set [2] (at 30% RH during adsorption) is listed as “approximately 45 minutes”. The “hydration state in the moisture sorption experiment” value in data set [2] (during both adsorption and desorption, 25° C.) was “stable dihydrate above 20% RH”. In addition, in data set [2] (sample after desorption scan), the “XRPD after equilibration at ambient laboratory conditions overnight” value is given as “re-converted to Form A”. For the same compound, the “pH, 1 week” value in data set [3] (DI water suspension, pH (initial) 6.9) was 7.2; in data set [3] (Phosphate buffer suspension, pH (initial) 3.2) it was 3.4. In addition, the solubility at 1 week in data set [3] (aqueous buffer, thermodynamic from solid, Phosphate buffer (20 mM), pH (initial) 3.2, pH 3.4 at 1 week) is less than 0.1 mg/mL; in data set [3] (de-ionized water, thermodynamic from solid, DI water, pH (initial) 6.9, pH 7.2 at 1 week), less than 0.1 mg/mL. Besides, the solubility at 1 day in data set [3] (de-ionized water, pH 6.9, thermodynamic from solid, DI water, pH (initial) 6.9, ambient temperature) was less than 0.1 mg/mL; in data set [3] (pH 3.2, aqueous buffer, thermodynamic from solid, Phosphate buffer (20 mM), pH (initial) 3.2, ambient temperature), less than 0.1 mg/mL. Besides, the “XRPD (1 week)” value in data set [3] (setting [7]) and in data set [3] (setting [8]) was “Form A” in each case. The “XRPD (1 day)” value in data set [3] (setting [7]) and in data set [3] (setting [8]) was “Form A” in each case. In addition, the “Karl Fischer (KF) analysis results before and after the one week equilibration” value in data set [4] is listed as “comparable”. The “XRPD after one week in humidity chamber” value in data set [4] was “consistent with Form A”. Moreover, the “1H NMR (degradation)” value in data set [5] (setting [9]) and in data set [5] (setting [10]) was “No degradation” in each case. For the same compound, the XRPD entry in data set [5] (setting [9]) was “Form F”; in data set [5] (setting [10]), “Form G”. Also, the “XRPD pattern of dioxane slurry” value in data set [6] was “mixture of Form A and Form D”.
